This is an account of results in publication PMC11301271 (FEBS Open Bio, 2024).

Assay [1] deals with T1, human MK (Homo sapiens, UniProt Q03426).
T1 construct: His6 (N); made in house; host or cells: E. coli BL21(DE3)
Description: MK coupled enzyme assay (pyruvate kinase/lactate dehydrogenase): inhibitor screening and IC50. It is filed as biochemical. The conditions noted are these: for IC50: read-out: IC50 for MK inhibition; for MK inhibition, result in words: screening, 10 μM compound. The procedure: A pET‐15b plasmid encoding human MK (UniProt Q03426) with an N‐terminal His6‐tag was transformed into E. coli BL21(DE3) cells (New England Biolabs, Whitby, ON, Canada). The cells were cultured in LB at 37 °C until the OD600 of the culture reached 0.6. Expression of the recombinant enzyme was induced by 0.1 mM IPTG for 6 h at 37 °C. The cells were lysed by sonication, and the lysate was subjected to Ni‐affinity chromatography (HisTrap HP, Cytiva, Vancouver, BC, Canada) followed by size exclusion chromatography (HiLoad Superdex 200 PG, Cytiva) (Fig. 2A). […] The purified enzyme was flash‐frozen in liquid nitrogen and stored at −80 °C. The final sample buffer (i.e., the size exclusion buffer) consisted of 10 mM HEPES (pH 7.5), 500 mM NaCl, 2 mM β‐mercaptoethanol, and 5% glycerol.
(§1) MK activity was measured by using a coupled enzyme assay as previously described. The reporter enzymes, pyruvate kinase and lactate dehydrogenase, were purchased as a pre‐mixed buffered solution from MilliporeSigma. […] All reactions were carried out at 32 °C in triplicate unless otherwise noted. Each reaction was initiated by adding 10 μL of MK (50 μg mL^−1; diluted from the −80 °C stock in 50 mM HEPES, pH 7.5) to 990 μL of the reaction buffer containing all the other components except MK (pre‐incubated at 32 °C for 5 min) and immediately transferring to a 1 mL disposable polystyrene cuvette (Fisherbrand) pre‐placed in the temperature‐controlled cell holder of an Agilent 8453 UV–visible Spectroscopy System. Blank reactions were added with 10 μL of 50 mM HEPES (pH 7.5) only. Reaction progress was continuously monitored by measuring the A340 for 1 min. To convert the measured absorbance to product concentration, an absorption coefficient of NADH determined from a calibration curve (5.4107 cm^−1 mM ^−1) was used. Initial rate experiments were conducted by varying the concentration of one substrate while keeping the other at a saturating concentration of 5 mM. Kinetic parameters were determined by fitting the rate data to the Michaelis–Menten model (Eqn 1), vi=VmaxS/Km+S, where [S] represents the concentration of the varied substrate. Data analysis was performed with […] PRISM software (GraphPad Software, Boston, MA, USA).
To prepare master stock solutions, the phosphonate compounds were dissolved in Milli‐Q water to a concentration of 20 mM, either as monosodium salts (monophosphonate compounds) or as trisodium salts (bisphosphonate compounds). Their effects on MK activity were evaluated by using the coupled enzyme assay described above. Each compound was tested at two concentrations: 1 and 10 μM.
To determine the IC 50, a more refined inhibition response across a broader range of inhibitor concentrations was measured. Typically, nine different inhibitor concentrations spanning a 10 000‐fold concentration range were used. Dose–response curves were generated by fitting the inhibition data to the following three‐parameter dose–response equation (Eqn 2), where Max and Min denote the maximum and minimum response, respectively: Response=Min+Max−Min/1+I/IC50.

For assay [2], the target named is T2, FPPS (Homo sapiens, UniProt P14324).
T2 sequence (P14324 1-419): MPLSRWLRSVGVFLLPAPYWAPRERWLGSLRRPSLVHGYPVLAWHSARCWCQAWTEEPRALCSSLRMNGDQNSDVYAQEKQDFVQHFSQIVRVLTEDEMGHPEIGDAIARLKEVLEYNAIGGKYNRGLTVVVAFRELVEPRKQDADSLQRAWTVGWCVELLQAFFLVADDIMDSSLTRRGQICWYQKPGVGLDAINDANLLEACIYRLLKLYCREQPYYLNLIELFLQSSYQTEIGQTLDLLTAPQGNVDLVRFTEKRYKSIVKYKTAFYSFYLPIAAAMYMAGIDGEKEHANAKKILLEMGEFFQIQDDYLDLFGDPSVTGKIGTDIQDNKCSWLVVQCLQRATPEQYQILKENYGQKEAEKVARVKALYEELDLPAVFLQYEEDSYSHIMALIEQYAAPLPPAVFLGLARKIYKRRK
The conditions noted are these: read-out: Kd, binding affinity of FPP for FPPS; ref [21]; cited from earlier work.

For assay [3], the target named is T1, human MK. Description: Steady-state kinetics of human MK (Michaelis-Menten, substrates). The assay is classed as biochemical. The conditions noted are these: one substrate varied, the other fixed at 5 mM; 32 °C; read-out: Km of recombinant MK for the substrate.
Assay [4] has as its target T1, human MK. Briefly: Mode of inhibition and Ki determination, initial rate experiments with MK. It is filed as biochemical. The conditions noted are these: for Ki' (ATP-bound enzyme), mixed inhibition model with respect to ATP: ATP varied 0.05-1 mM, MVA 5 mM; for Ki', uncompetitive inhibition model with respect to MVA: MVA varied 0.01-0.2 mM, ATP 5 mM. The procedure:
as §1
In all experiments, one substrate was added at a constant concentration of 5 mM. […] Each inhibitor was tested at four different concentrations ranging from 0 to 200 nM. Data analysis was performed with […] PRISM software. The initial rates were fitted to steady‐state equations describing competitive inhibition model (Eqn 3), vi=VmaxS/Km1+I/Ki+S, noncompetitive inhibition model (Eqn 4), vi=VmaxS/1+I/Ki/Km+S, uncompetitive inhibition model (Eqn 5), vi=VmaxS/1+I/Ki^′/Km/1+I/Ki^′+S, and mixed inhibition model (Eqn 6), vi=VmaxS/1+I/Ki^′/Km1+I/Ki/1+I/Ki^′+S, where [S] represents the concentration of the varied substrate. The selection of the most appropriate models was determined through the extra sum‐of‐squares F test as implemented in the software.

Assay [5] concerns the target T2, FPPS. Description: Inhibition of FPPS. The assay is classed as biochemical. The conditions noted are these: read-out: inhibition of FPPS at 10 μM; 10 μM compound; unpublished data.
Assay [6] addresses T1, human MK. Also noted: method as in PMID 9325256, PMID 18302342. The conditions noted are these: ref [19], [20]; read-out: Km of MK for the substrate, previously reported; cited from earlier work.

Molecules are shown by their SMILES. Values joined by “and” are separate entries in the source; they are usually repeats but may differ in a detail not shown here. Equal entries are not always repeated. Where two headings read alike, the source gives them in different places. Where only a bound is given, the exact number is not on record here.

T1 sequence (Q03426 whole entry): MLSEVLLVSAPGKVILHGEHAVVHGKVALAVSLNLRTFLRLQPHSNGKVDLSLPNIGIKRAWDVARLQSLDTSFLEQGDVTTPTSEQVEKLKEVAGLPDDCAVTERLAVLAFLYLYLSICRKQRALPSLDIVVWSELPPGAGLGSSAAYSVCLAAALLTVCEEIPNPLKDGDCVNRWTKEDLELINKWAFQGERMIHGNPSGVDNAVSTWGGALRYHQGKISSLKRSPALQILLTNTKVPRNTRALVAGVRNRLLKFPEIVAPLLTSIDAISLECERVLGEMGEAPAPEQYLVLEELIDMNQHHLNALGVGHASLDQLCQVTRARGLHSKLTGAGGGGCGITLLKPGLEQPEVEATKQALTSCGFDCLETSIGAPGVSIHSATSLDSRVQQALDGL

Usually IC50 stands for the concentration that inhibits the measured activity by half. As a reminder, the Kd is the constant that tells how readily two partners part at equilibrium. For `CC(C)=CCC/C(C)=C/CC/C(C)=C/CO[P@@](=O)(O)OP(=O)(O)O` (stereo in doubt) [FPP, farnesyl pyrophosphate, reference compound], the IC50 on human MK [1] is 12 nM. The Kd on FPPS [2] was 5 to 6 µM.

One may read the Km as the concentration of substrate that gives half-maximal velocity. Take `Nc1ncnc2c1ncn2[C@@H]1O[C@H](COP(=O)(O)OP(=O)(O)OP(=O)(O)O)[C@@H](O)[C@H]1O` [ATP]: the Km at human MK [3] came to 61 µM.

Regarding `O=P(O)(O)CNc1ncnc2sccc12` [Compound 1], on human MK [1], the “MK inhibition, result in words” value is “Inactive at 10 μM”.

Regarding `COc1cc(C)c(Cl)cc1-c1cc2c(NC(c3ccccc3)P(=O)(O)O)ncnc2s1` (stereo not drawn) [Compound 2], the IC50 on human MK [1] is 1900 nM.

`Cc1ccc(-c2cc3c(NC(Cc4ccccc4)P(=O)(O)O)ncnc3s2)cc1Cl` (stereo not drawn) [Compound 6]: the IC50 at human MK [1] worked out at 2500 nM.

Regarding `Cc1ccc(-c2cc3c(NC(Cc4cccc(F)c4)P(=O)(O)O)ncnc3s2)cc1OCC(C)C` (stereo not drawn) [Compound 9, (2‐(3‐Fluorophenyl)‐1‐((6‐(3‐isobutoxy‐4‐methylphenyl)thieno[2,3‐d]pyrimidin‐4‐yl)amino)ethyl)phosphonic acid], the IC50 on human MK [1] is 1000 nM.

In the case of `Cc1ccc(-c2cc3c(NC(Cc4ccccc4)P(=O)(O)O)ncnc3s2)cc1OC1CC1` (stereo not drawn) [Compound 10, (1‐((6‐(3‐Cyclopropoxy‐4‐methylphenyl)thieno[2,3‐d]pyrimidin‐4‐yl)amino)‐2‐phenylethyl)phosphonic acid], the IC50 at human MK [1] worked out at 1600 nM.

As a reminder, the Ki is a measure of affinity in units of concentration, obtained from inhibition or displacement. A higher Ki goes with lower affinity. As usually defined, the inhibition is how much of the control response was suppressed. As for `O=P(O)(O)C(Nc1ncnc2sc(-c3ccc(C(F)(F)F)cc3)cc12)c1ccccc1` (stereo not drawn) [Compound 11, (phenyl((6‐(4‐(trifluoromethyl)phenyl)thieno[2,3‐d]pyrimidin‐4‐yl)amino)methyl)phosphonic acid], the IC50 on human MK [1] stood at 42 nM. For the same compound, at human MK [4], the Ki was found to be 22 nM; the “Ki' (ATP-bound enzyme), mixed inhibition model with respect to ATP” value is 380 nM; the “Ki', uncompetitive inhibition model with respect to MVA” value amounted to 140 nM. In addition, the “Ki'/Ki ratio” value at human MK [4] (ATP as varied substrate, mixed inhibition model) was ~ 17. Moreover, the inhibition at 10 µM on FPPS [5] is < 50%.

With `O=P(O)(O)C(Nc1ncnc2sc(-c3ccc(F)cc3)cc12)c1ccccc1` (stereo not drawn) [Compound 12, (((6‐(4‐fluorophenyl)thieno[2,3‐d]pyrimidin‐4‐yl)amino)(phenyl)methyl)phosphonic acid], the IC50 at human MK [1] amounted to 46 nM.

With `COc1cccc(OC)c1-c1cc2c(NC(c3ccccc3)P(=O)(O)O)ncnc2s1` (stereo not drawn) [Compound 13, (((6‐(2,6‐dimethoxyphenyl)thieno[2,3‐d]pyrimidin‐4‐yl)amino)(phenyl)methyl)phosphonic acid], at human MK [1], the IC50 was found to be 3300 nM.

Consider `O=P(O)(O)C(Nc1ncnc2sc(-c3cccc(C(F)(F)F)c3)cc12)c1ccccc1` (stereo not drawn) [Compound 14, (phenyl((6‐(3‐(trifluoromethyl)phenyl)thieno[2,3‐d]pyrimidin‐4‐yl)amino)methyl)phosphonic acid], for which the half-inhibitory concentration (IC50) on human MK [1] came to 120 nM.

Regarding `COc1cc(C)c(F)cc1-c1cc2c(NC(c3ccccc3)P(=O)(O)O)ncnc2s1` (stereo not drawn) [Compound 15], the 50% inhibitory concentration (IC50) at human MK [1] stood at 2300 nM.

Take `Cn1cc(CCP(=O)(O)O)c2cc(-c3ccc(C(F)(F)F)cc3)ccc21` [Compound 16, 2‐(1‐Methyl‐5‐(4‐(trifluoromethyl)phenyl)‐1H‐indol‐3‐yl)ethylphosphonic acid]: at human MK [1], the half-maximal inhibitory concentration (IC50) was 8.1 nM. Besides, at human MK [4], the Ki is 3.1 nM; the “Ki' (ATP-bound enzyme), mixed inhibition model with respect to ATP” value is listed as 14 nM; the “Ki', uncompetitive inhibition model with respect to MVA” value is reported as 10 nM. Also, at FPPS [5], the inhibition at 10 µM is < 50%.

`O=P(O)(O)C(Nc1ncnc2sc(-c3cccc(C(F)(F)F)c3)cc12)P(=O)(O)O` [Compound 17]: on human MK [1], the “MK inhibition, result in words” value is “Inactive at 10 μM”.

Consider `CC(C)=CCC/C(C)=C/CC/C(C)=C/COP(=O)(O)OP(=O)(O)O` [FPP, farnesyl pyrophosphate, reference compound], for which the inhibition at 1 µM on human MK [1] (read-out: inhibition of the MK reaction at 1 μM) stood at 96%.

For `C[C@@](O)(CCO)CC(=O)O` [MVA, mevalonic acid], the Km on human MK [3] is 37 µM; at human MK [6], 24 µM and 40.8 µM.
